Experimental data as given in ChEMBL document CHEMBL1201862, “PubChem BioAssay data set” (2004).
Blank lines part the entries; values can stand above or below the compound they belong to. The source made the active and inactive calls.

Tests used:
[1] = molecular target: T1, Insulin-degrading enzyme (Homo sapiens, UniProt P14735); experiment: recombinant IDE activation, cell-free – biochemical, fluorescence polarization, counter-screen for IDE activator project, dose response (AID 588681)
[2] = Luminescence Cell-Based Dose Retest to Confirm Inhibitors of Cancer Stem Cells. [Related pubchem assays (depositor defined):AID2717, AID2721]; assay type: functional; conditions: Homo sapiens
[3] = system: HEK293; experiment: optical interference in Abeta FP readout, dose response, artefact control for IDE activator project, biochemical, fluorescence polarization (AID 588442); assay type: functional, cell-based; conditions: Homo sapiens
[4] = molecular target: T1, Insulin-degrading enzyme; experiment: cellular IDE activation of Abeta substrate cleavage – fluorescence polarization, HEK cells, dose response (AID 588439); assay type: functional, cell-based
[5] = system: CHO; experiment: CHO cell viability loss, potency – luminescence, cytotoxicity control for TLR9-MyD88 binding inhibitor project, dose response (AID 588339); assay type: functional, cell-based, hamster; conditions: Cricetulus griseus;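 further: CHO cells stably coexpressing TLR9 and MyD88 fusions from primary screen; compound exposure lasted 48 hours before viability readout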
[6] = system: HEK293; experiment: membrane integrity loss in HEK cells – cell-based, fluorescence, cytotoxicity control for IDE activator project, dose response (AID 588440); assay type: functional; conditions: Homo sapiens;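 further: cytotoxicity by LDH release measuring loss of membrane integrity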
[7] = molecular target: Beta Lactamase (Pseudomonas aeruginosa, UniProt Q932Y6); experiment: BLA reporter interference, concentration series – BLA reporter cells, FRET fluorescence, artefact control for TLR9-MyD88 binding inhibitor project, dose response (AID 588341); assay type: cell-based;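 further: cell based assay in CHO-K1 cells stably expressing beta-lactamase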
[8] = molecular target: Mitogen-activated protein kinase kinase kinase kinase 5 (Homo sapiens, UniProt Q9Y4K4); assay type: functional;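 further: measured as one member of a kinome-spanning kinase panel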
[9] = molecular target: Serine/threonine-protein kinase PAK 1 (Homo sapiens, UniProt Q13153); assay type: functional
[10] = molecular target: MAP kinase-interacting serine/threonine-protein kinase 2 (Homo sapiens, UniProt Q9HBH9); assay type: functional
[11] = molecular target: Interleukin-1 receptor-associated kinase 4 (Homo sapiens, UniProt Q9NWZ3); assay type: functional
[12] = molecular target: Dual specificity protein kinase CLK4 (Homo sapiens, UniProt Q9HAZ1); assay type: functional
[13] = molecular target: Mitogen-activated protein kinase kinase kinase kinase 4 (Homo sapiens, UniProt O95819); assay type: functional
[14] = molecular target: T2, Fatty acid synthase (Homo sapiens, UniProt P49327); experiment: inhibition of human FAS-TE enzyme activity – biochemical, kinetic fluorescence intensity, dose response (AID 624326); assay type: functional;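 further: rate of fluorescence rise from hydrolysis of a fluorogenic O-methyl fluorescein ester substrate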
[15] = cAMP pathway inhibition in counterscreen cell line – TR-FRET cAMP detection, counter-screen for MC4R biased antagonist project, dose response (AID 602305); assay type: functional, cell-based;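 further: U2OS cells stimulated with forskolin near its EC80 as the cAMP inducer; potency is for inhibition of forskolin-stimulated cAMP signaling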
[16] = molecular target: T2, Fatty acid synthase; experiment: inhibition of human FAS-TE enzyme activity – biochemical, endpoint fluorescence intensity, uHTS hits, dose response (AID 624327); assay type: functional;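 further: fluorescence from hydrolysis of an O-methyl fluorescein acyl ester substrate by the enzyme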
[17] = molecular target: Melanocortin receptor 4 (Homo sapiens, UniProt P32245); experiment: inhibitors of MC4R cAMP signaling – cell-based, TR-FRET, biased antagonists, dose response (AID 602298); assay type: functional;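 further: antagonist potency against agonist-stimulated cAMP production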
[18] = molecular target: Melanin-concentrating hormone receptor 1 (Homo sapiens, UniProt Q99705); experiment: Late-stage fluorescence-based counterscreen for antagonists of the G-protein coupled receptor 7 (GPR7): cell-based dose response assay to identify antagonists of the melanin-concentrating hormone receptor 1 (MCHR1) Set 5.; assay type: functional
[19] = molecular target: Neuropeptides B/W receptor type 1 (Homo sapiens, UniProt P48145); experiment: human NPBW1 receptor blockade, IC50 – cell-based, fluorescence, dose response, set 5, late-stage follow-up (AID 588566); assay type: functional
[20] = molecular target: T3, Sentrin-specific protease 7 (Homo sapiens, UniProt Q9BQF6); experiment: inhibition of human SENP7 cleavage activity – biochemical, luminescence, SAR follow-up (AID 504497); assay type: functional
T3 sequence (Q9BQF6 whole entry): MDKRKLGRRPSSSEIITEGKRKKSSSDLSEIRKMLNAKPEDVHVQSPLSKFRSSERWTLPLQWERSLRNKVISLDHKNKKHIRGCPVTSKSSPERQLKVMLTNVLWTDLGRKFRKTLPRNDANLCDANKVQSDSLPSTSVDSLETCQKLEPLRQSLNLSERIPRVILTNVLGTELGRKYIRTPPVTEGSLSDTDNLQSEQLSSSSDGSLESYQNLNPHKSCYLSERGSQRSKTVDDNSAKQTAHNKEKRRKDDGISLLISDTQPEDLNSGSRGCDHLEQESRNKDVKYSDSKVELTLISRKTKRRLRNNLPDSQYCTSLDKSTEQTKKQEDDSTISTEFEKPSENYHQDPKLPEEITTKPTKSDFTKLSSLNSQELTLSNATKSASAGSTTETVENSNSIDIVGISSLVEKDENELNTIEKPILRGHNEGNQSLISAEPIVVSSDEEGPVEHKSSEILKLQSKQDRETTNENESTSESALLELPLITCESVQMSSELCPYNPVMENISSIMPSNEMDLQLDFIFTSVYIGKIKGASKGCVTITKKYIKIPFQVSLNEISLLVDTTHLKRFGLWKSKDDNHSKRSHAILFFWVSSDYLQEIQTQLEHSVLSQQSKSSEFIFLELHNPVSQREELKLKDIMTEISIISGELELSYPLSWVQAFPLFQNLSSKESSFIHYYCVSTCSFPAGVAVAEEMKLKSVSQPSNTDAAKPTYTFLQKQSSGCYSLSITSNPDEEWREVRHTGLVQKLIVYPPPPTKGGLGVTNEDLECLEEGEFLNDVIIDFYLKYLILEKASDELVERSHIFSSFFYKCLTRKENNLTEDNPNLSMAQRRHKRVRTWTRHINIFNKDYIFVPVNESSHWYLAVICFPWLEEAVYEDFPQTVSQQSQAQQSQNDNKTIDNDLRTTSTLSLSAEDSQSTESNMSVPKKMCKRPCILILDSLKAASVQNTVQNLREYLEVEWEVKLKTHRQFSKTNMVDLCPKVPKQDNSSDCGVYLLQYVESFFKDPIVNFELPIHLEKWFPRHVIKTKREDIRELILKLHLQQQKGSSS

[21] = molecular target: T4, Caspase-3 (Homo sapiens, UniProt P42574); experiment: inhibition of recombinant caspase-3 activity – biochemical, luminescence, set 2, selectivity assay for SENP protease inhibitor project, SAR follow-up (AID 588599); assay type: functional
T4 sequence (P42574 whole entry): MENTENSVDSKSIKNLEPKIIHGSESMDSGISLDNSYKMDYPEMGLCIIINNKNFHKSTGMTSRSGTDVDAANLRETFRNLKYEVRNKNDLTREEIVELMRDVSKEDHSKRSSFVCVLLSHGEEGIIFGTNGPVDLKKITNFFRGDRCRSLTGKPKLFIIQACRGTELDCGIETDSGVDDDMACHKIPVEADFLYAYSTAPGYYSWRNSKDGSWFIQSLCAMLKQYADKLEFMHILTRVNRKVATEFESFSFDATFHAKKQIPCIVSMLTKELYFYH

[22] = molecular target: T5, Sentrin-specific protease 6 (Homo sapiens, UniProt Q9GZR1); experiment: SAR Analysis of small molecule inhibitors of Sentrin-specific protease 6 (SENP6) using a Luminescent assay. [Related pubchem assays (depositor defined):AID2582, AID2599]; assay type: functional
T5 sequence (Q9GZR1 whole entry): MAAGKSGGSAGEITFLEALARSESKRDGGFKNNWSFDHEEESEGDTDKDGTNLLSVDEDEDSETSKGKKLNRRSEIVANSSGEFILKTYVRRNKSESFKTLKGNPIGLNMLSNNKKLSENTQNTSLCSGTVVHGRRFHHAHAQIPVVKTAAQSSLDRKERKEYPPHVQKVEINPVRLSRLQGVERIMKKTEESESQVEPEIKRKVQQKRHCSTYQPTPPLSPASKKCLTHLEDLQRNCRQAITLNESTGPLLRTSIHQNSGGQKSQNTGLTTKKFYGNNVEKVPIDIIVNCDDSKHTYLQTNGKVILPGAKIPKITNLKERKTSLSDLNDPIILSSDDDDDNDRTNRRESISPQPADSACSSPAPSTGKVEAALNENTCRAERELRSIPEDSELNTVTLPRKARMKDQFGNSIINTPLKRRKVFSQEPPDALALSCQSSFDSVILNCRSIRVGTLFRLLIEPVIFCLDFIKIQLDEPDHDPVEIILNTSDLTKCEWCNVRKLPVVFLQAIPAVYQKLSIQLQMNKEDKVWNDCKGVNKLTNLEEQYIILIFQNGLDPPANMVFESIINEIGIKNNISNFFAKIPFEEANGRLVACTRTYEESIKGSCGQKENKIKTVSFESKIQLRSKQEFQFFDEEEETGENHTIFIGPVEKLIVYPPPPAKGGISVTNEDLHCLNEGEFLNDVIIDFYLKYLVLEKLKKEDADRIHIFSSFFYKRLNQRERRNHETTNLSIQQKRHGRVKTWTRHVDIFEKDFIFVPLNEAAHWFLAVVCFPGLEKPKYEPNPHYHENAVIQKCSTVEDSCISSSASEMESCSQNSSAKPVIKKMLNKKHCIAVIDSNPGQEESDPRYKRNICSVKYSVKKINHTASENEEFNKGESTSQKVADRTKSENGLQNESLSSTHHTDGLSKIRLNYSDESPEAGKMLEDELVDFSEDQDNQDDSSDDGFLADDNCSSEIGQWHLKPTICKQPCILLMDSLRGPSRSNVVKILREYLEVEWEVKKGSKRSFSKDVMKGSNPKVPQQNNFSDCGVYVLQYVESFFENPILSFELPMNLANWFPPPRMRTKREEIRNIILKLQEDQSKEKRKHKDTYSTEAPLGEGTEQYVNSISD

[23] = molecular target: T3, Sentrin-specific protease 7; experiment: inhibition of human SENP7 cleavage activity – biochemical, luminescence, set 2, SAR follow-up (AID 588600); assay type: functional
[24] = molecular target: T5, Sentrin-specific protease 6; experiment: inhibition of human SENP6 catalytic domain – biochemical, luminescence, set 2, SAR follow-up (AID 588598); assay type: functional
[25] = molecular target: T6, Sentrin-specific protease 8 (Homo sapiens, UniProt Q96LD8); experiment: inhibition of sentrin protease 8 – biochemical, luminescence, set 2, SAR follow-up (AID 588601); assay type: functional
T6 sequence (Q96LD8 whole entry): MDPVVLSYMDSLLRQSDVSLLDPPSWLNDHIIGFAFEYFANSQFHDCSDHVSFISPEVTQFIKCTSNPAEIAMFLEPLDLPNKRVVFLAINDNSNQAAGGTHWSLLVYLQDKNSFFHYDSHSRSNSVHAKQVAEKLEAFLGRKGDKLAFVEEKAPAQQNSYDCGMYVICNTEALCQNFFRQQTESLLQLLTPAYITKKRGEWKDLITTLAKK

[26] = molecular target: T6, Sentrin-specific protease 8; experiment: inhibition of human SENP8 cleavage activity – biochemical, luminescence, SAR follow-up (AID 504501); assay type: functional
[27] = molecular target: T4, Caspase-3; experiment: SAR Analysis of small molecule inhibitors of Sentrin-specific proteases (SENPs) using a Caspase-3 Selectivity assay. [Related pubchem assays (depositor defined):AID2540, AID2599, AID434973, AID489001]; assay type: functional
[28] = molecular target: Sphingosine 1-phosphate receptor 2 (Homo sapiens, UniProt O95136); experiment: Late-stage fluorescence-based dose-response cell-based counterscreen assay to identify agonists of the Sphingosine 1-Phosphate Receptor 3 (S1P3): Sphingosine 1-Phosphate Receptor 2 (S1P2) agonist assay.; assay type: functional
[29] = molecular target: Sphingosine 1-phosphate receptor 4 (Homo sapiens, UniProt O95977); experiment: Late-stage fluorescence-based dose-response cell-based counterscreen assay to identify agonists of the Sphingosine 1-Phosphate Receptor 3 (S1P3): Sphingosine 1-Phosphate Receptor 4 (S1P4) agonist assay.; assay type: functional
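Wherever AC50 is given: cells exposed to compound for roughly 70 hours or longer before luminescence read.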

T1 sequence (P14735 whole entry): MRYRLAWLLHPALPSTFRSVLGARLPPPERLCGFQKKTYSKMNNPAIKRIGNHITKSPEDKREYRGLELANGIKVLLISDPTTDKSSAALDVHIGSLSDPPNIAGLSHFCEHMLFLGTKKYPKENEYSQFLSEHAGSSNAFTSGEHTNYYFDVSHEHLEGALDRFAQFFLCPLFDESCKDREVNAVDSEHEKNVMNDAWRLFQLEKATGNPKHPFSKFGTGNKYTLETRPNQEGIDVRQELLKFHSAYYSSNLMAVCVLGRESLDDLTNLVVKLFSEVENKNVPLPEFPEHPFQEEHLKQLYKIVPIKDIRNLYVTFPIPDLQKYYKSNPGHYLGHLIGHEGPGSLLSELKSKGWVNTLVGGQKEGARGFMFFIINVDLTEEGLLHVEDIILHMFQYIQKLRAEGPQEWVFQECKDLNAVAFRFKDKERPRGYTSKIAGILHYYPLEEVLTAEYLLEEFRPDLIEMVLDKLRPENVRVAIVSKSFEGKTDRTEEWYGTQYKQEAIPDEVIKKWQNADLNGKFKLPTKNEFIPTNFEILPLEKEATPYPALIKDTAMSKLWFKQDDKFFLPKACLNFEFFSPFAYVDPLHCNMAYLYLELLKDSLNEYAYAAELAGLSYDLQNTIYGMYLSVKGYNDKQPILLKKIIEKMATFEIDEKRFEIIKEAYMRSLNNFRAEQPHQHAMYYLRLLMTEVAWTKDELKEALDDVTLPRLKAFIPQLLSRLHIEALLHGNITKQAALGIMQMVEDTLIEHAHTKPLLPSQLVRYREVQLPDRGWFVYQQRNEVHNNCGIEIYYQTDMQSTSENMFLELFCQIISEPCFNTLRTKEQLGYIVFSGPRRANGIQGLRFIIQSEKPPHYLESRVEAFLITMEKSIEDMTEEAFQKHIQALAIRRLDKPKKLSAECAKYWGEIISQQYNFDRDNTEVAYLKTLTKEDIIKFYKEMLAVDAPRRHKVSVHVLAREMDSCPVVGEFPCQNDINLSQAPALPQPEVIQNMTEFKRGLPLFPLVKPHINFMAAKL
T2 sequence (P49327 whole entry): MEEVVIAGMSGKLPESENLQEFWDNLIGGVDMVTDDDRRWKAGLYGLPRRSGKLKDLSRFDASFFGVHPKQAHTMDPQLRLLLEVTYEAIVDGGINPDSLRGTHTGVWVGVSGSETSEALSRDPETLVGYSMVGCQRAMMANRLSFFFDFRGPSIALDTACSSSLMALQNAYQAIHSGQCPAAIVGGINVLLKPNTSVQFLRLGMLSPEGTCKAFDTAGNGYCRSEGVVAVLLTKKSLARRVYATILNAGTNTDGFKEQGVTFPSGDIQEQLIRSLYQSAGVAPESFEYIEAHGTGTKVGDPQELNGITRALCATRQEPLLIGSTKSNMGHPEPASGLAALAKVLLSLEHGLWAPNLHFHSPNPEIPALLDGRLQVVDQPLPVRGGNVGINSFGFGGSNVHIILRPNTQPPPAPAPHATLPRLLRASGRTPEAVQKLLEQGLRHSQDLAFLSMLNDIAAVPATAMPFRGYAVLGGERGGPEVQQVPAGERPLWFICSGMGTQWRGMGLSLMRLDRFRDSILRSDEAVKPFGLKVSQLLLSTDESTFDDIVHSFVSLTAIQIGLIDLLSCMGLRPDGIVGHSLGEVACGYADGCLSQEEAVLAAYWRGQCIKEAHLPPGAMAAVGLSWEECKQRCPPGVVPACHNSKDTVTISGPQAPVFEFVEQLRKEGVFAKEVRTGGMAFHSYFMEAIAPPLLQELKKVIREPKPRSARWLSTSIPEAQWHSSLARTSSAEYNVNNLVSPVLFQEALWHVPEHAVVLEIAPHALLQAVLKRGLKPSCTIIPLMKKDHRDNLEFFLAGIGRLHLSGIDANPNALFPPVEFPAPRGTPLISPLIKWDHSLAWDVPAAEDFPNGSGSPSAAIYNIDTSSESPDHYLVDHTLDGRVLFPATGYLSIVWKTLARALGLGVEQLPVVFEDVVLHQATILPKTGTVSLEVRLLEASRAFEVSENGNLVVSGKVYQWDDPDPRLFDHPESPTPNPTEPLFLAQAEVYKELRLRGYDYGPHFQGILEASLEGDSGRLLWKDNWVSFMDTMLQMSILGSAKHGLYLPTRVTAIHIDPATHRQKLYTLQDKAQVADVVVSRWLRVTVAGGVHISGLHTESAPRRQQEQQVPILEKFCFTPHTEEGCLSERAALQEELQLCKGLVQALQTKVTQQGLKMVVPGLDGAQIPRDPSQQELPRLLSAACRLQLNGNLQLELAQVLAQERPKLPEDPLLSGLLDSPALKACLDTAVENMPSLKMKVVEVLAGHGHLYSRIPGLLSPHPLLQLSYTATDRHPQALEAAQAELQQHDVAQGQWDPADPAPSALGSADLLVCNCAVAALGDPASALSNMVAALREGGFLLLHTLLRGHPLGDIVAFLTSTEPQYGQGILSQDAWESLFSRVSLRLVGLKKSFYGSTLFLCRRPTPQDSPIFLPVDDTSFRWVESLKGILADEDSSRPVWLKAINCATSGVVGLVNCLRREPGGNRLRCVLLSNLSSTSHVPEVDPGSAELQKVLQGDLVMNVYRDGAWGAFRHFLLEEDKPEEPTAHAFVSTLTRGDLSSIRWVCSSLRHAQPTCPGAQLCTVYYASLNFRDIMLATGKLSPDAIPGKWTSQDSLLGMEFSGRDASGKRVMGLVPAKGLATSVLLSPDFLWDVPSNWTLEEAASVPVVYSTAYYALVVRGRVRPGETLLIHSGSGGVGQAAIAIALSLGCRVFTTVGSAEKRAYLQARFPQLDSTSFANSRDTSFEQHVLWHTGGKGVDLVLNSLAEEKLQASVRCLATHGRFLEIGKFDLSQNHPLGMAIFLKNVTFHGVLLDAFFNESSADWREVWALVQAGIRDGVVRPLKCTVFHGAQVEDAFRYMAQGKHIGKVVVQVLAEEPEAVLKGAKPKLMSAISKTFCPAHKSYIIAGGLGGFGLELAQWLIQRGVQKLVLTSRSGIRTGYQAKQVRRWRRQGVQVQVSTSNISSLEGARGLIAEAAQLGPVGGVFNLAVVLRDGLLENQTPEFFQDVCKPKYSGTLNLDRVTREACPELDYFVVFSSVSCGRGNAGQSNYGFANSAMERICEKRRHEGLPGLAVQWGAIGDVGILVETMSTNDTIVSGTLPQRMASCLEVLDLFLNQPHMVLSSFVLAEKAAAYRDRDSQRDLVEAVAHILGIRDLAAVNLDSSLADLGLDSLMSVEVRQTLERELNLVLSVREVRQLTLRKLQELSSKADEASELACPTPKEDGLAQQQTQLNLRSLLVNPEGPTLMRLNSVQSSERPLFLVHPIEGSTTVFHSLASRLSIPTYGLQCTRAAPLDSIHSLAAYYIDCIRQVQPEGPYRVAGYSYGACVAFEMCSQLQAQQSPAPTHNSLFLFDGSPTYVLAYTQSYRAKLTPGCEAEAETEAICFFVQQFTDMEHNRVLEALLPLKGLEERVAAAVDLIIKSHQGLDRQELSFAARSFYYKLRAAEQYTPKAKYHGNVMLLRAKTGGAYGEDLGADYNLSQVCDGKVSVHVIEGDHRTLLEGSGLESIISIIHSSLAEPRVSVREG
Sequence of Mitogen-activated protein kinase kinase kinase kinase 4 (O95819 whole entry): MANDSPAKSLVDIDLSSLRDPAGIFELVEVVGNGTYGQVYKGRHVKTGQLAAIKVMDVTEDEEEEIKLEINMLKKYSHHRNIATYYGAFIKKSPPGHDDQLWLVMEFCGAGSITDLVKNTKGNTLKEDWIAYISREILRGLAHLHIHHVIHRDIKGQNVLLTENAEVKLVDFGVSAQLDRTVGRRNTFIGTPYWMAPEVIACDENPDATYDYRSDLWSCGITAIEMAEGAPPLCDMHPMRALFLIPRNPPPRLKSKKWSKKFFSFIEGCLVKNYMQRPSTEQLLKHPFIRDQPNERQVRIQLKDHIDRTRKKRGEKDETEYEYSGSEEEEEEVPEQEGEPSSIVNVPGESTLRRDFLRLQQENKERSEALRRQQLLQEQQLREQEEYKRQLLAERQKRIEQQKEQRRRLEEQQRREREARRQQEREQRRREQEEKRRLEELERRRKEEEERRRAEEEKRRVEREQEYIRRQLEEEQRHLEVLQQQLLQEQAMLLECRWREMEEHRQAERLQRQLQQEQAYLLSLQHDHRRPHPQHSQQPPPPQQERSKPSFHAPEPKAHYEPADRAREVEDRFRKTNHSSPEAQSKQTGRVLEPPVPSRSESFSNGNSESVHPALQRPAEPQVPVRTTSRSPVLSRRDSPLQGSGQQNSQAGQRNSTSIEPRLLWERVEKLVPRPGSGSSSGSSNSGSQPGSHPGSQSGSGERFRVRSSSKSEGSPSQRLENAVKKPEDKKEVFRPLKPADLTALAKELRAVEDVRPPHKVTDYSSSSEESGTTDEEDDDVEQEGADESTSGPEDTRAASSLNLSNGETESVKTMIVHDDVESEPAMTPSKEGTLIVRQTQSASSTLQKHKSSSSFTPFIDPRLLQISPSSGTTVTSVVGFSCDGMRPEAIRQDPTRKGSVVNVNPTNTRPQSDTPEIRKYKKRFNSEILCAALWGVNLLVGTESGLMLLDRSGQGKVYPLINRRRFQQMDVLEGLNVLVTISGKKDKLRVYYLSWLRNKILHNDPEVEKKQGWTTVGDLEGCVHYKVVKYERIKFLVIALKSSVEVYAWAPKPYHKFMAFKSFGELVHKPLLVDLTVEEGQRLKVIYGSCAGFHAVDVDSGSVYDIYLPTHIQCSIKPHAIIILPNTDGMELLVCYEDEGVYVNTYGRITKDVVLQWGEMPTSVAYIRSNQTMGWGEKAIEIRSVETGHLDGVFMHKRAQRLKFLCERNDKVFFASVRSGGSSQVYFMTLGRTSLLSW
Sequence of Sphingosine 1-phosphate receptor 4 (O95977 whole entry): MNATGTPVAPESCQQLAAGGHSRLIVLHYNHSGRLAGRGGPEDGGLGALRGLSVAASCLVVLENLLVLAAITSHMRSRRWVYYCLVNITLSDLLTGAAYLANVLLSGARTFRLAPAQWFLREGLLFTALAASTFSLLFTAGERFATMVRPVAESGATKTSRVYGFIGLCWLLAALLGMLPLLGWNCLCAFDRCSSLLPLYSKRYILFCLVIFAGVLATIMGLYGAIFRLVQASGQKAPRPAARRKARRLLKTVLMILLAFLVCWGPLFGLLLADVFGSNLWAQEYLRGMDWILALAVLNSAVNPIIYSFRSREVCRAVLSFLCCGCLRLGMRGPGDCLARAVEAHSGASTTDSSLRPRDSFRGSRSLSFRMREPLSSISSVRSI

Compound: CCCCCCSc1cc(-c2nc3cnccn3c2NCCCC)ccc1OC
EC50 [1]: > 54.7 µM (inactive)
AC50 [2]: 4.56 µM (active)
EC50 [3]: > 56 µM (inactive)
EC50 [4]: 13.9 µM (inactive)
IC50 [5]: 21.2 µM (inactive)
IC50 [6]: 33.6 µM (inactive)
IC50 [7]: 7.42 µM (active)

Compound: O=C(Oc1ccccc1C(=O)Nc1ccccc1)c1ccc(Br)c([N+](=O)[O-])c1
IC50 [14]: 5.97 µM (active)
IC50 [15]: > 64.6 µM (inactive)
IC50 [16]: 4.66 µM (active)
IC50 [17]: > 64.6 µM (inactive)

Compound: CCCc1cc(C(=O)NC2CCCCC2)no1
EC50 [28]: > 50 µM (inactive)
EC50 [29]: > 50 µM (inactive)

Now from value to compound, other results behind:

Ki [8]: 1 µM (active)
Ki [9]: > 10 µM (inactive)
Ki [10]: 6.31 µM (active)
Ki [11]: > 10 µM (inactive)
Ki [12]: 3.98 µM (active)
Ki [13]: 1.26 µM (active)
Compound: CC(=O)c1cccc(-c2cnc3ccccc3c2)c1

IC50 [18]: 0.804 µM (active)
IC50 [19]: 2.55 µM (active)
Compound: CCOc1ccc(Oc2c(S(C)(=O)=O)cnn(Cc3cccc4ccccc34)c2=O)cc1

IC50 [20]: 2 µM (active)
IC50 [21]: 3.68 µM (active)
IC50 [22]: 3.5 µM (active)
IC50 [23]: 2.7 µM (active)
IC50 [24]: 3.02 µM (active)
IC50 [27]: 3.6 µM (active)
Compound: O=C(Nc1nc2c(F)cccc2s1)c1cccs1
IC50 [25]: 2.66 µM (active)
IC50 [26]: 4.1 µM (active)
